In patent publication US9095138B2, “Isoxazoline insecticides” (E.I. du Pont de Nemours and Company, priority 2007, dated 2015):

Assays:
Assay type in all cases: in vivo
[1] = system: diamondback moth (Plutella xylostella); assay: Test A: control of diamondback moth on radish plant, foliar spray; conditions: sprayed at 50 ppm; neonate larvae on radish; assessed after 6 days; replicated three times
Procedure, shortened: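 Radish plants 12–14 days old, pre-infested with about 50 neonate larvae, were sprayed with compound at 50 ppm in 10% acetone/water with 300 ppm X-77 surfactant, in three replicates. Units were held 6 days at 25 °C and 70% RH. Feeding damage was assessed visually and mortality was counted.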

[2] = system: western flower thrips (Frankliniella occidentalis); assay: Test E: control of western flower thrips on Soleil bean plant, contact and/or systemic; conditions: adult thrips, assessed after 6 days, replicated three times
Procedure, shortened: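 A 5-7 day old Soleil bean plant was sprayed with compound at 250 or 50 ppm in 10% acetone/water with 300 ppm X-77 surfactant, dried 1 hour, then infested with 22-27 adult thrips. After 6 days at 25° C., 45-55% relative humidity, mortality and plant damage were rated; three replicates.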

[3] = system: fall armyworm (Spodoptera frugiperda); assay: Test B: control of fall armyworm on corn (maize) plant, foliar spray; conditions: sprayed at 50 ppm; 1-day-old larvae on corn; replicated three times
Description: Test compounds were formulated using a solution containing 10% acetone, 90% water and 300 ppm X-77™ Spreader Lo-Foam Formula non-ionic surfactant containing alkylarylpolyoxyethylene, free fatty acids, glycols and isopropanol (Loveland Industries, Inc. Greeley, Colo., USA). The formulated compounds were applied in 1 mL of liquid through a SUJ2 atomizer nozzle with ⅛ JJ custom body (Spraying Systems Co. Wheaton, Ill., USA) positioned 1.27 cm (0.5 inches) above the top of each test unit. All experimental compounds in these tests were sprayed at 50 ppm, and the test was replicated three times. After spraying of the formulated test compound, each test unit was allowed to dry for 1 h and then a black, screened cap was placed on top. The test units were held for 6 days in a growth chamber at 25° C. and 70% relative humidity. Plant feeding damage was then visually assessed based on foliage consumed and a pest mortality rating was also counted and calculated for each test unit.
For evaluating control of fall armyworm (Spodoptera frugiperda) the test unit consisted of a small open container with a 4-5-day-old corn (maize) plant inside. This was pre-infested (using a core sampler) with 10-15 1-day-old larvae on a piece of insect diet. Test compounds were formulated and sprayed at 50 ppm as described for Test A and replicated three times. After spraying, the test units were maintained in a growth chamber and then the control efficacy was rated for each test unit as described for Test A.

| Compound | control efficacy (feeding damage or mortality): very good to excellent levels [1] | control efficacy (feeding damage or mortality): very good to excellent levels ([2]; sprayed at 50 ppm) | control efficacy (feeding damage or mortality): very good to excellent levels ([2]; sprayed at 250 ppm) | control efficacy (feeding damage or mortality): very good to excellent levels [3] |
| --- | --- | --- | --- | --- |
| CC(NC(=O)c1ccc(C2=NOC(c3cc(Cl)cc(C(F)(F)F)c3)(C(F)(F)F)C2)c2ccccc12)C(=O)NC1CC1 (stereo not shown) [Compound 78] | 20% or less feeding damage or 80% or more mortality | 20% or less feeding damage or 80% or more mortality | 20% or less feeding damage or 80% or more mortality | 20% or less feeding damage or 80% or more mortality |
| CC(NC(=O)c1ccc(C2=NOC(c3cc(Cl)cc(C(F)(F)F)c3)(C(F)(F)F)C2)c2ccccc12)C(=O)NCC1CC1 (stereo not shown) [Compound 79] | 20% or less feeding damage or 80% or more mortality | 20% or less feeding damage or 80% or more mortality | 20% or less feeding damage or 80% or more mortality | 20% or less feeding damage or 80% or more mortality |
| C[C@@H](NC(=O)c1ccc(C2=NOC(c3cc(C(F)(F)F)cc(C(F)(F)F)c3)(C(F)(F)F)C2)c2ccccc12)C(=O)NCC1CC1(F)F (stereo partly shown) [Compound 80] | 20% or less feeding damage or 80% or more mortality | 20% or less feeding damage or 80% or more mortality | 20% or less feeding damage or 80% or more mortality | 20% or less feeding damage or 80% or more mortality |
| O=C(CNC(=O)c1ccc(C2=NOC(c3cc(Cl)cc(OC(F)(F)F)c3)(C(F)(F)F)C2)c2ccccc12)NCC1CC1 (stereo not shown) [Compound 81] | 20% or less feeding damage or 80% or more mortality | 20% or less feeding damage or 80% or more mortality |  | 20% or less feeding damage or 80% or more mortality |
| O=C(CNC(=O)c1ccc(C2=NOC(c3cc(Cl)cc(OC(F)(F)F)c3)(C(F)(F)F)C2)c2ccccc12)NC1CC1 (stereo not shown) [Compound 82] | 20% or less feeding damage or 80% or more mortality | 20% or less feeding damage or 80% or more mortality |  | 20% or less feeding damage or 80% or more mortality |
| C[C@@H](NC(=O)c1ccc(C2=NOC(c3cc(Br)cc(C(F)(F)F)c3)(C(F)(F)F)C2)c2ccccc12)C(N)=O (stereo partly shown) [Compound 83] | 20% or less feeding damage or 80% or more mortality | 20% or less feeding damage or 80% or more mortality |  | 20% or less feeding damage or 80% or more mortality |
| O=C(CNC(=O)c1ccc(C2=NOC(c3cc(Cl)cc(OCC(F)(F)F)c3)(C(F)(F)F)C2)c2ccccc12)NCC1CC1 (stereo not shown) [Compound 84] | 20% or less feeding damage or 80% or more mortality | 20% or less feeding damage or 80% or more mortality |  | 20% or less feeding damage or 80% or more mortality |
| O=C(CNC(=O)c1ccc(C2=NOC(c3cc(Cl)cc(OCC(F)(F)F)c3)(C(F)(F)F)C2)c2ccccc12)NC1CC1 (stereo not shown) [Compound 85] | 20% or less feeding damage or 80% or more mortality | 20% or less feeding damage or 80% or more mortality |  | 20% or less feeding damage or 80% or more mortality |
| CC[C@@H](NC(=O)c1ccc(C2=NOC(c3cc(Cl)cc(C(F)(F)F)c3)(C(F)(F)F)C2)c2ccccc12)C(N)=O (stereo partly shown) [Compound 86] | 20% or less feeding damage or 80% or more mortality | 20% or less feeding damage or 80% or more mortality |  | 20% or less feeding damage or 80% or more mortality |
| CC(C)[C@@H](NC(=O)c1ccc(C2=NOC(c3cc(Cl)cc(C(F)(F)F)c3)(C(F)(F)F)C2)c2ccccc12)C(N)=O (stereo partly shown) [Compound 87] | 20% or less feeding damage or 80% or more mortality | 20% or less feeding damage or 80% or more mortality |  | 20% or less feeding damage or 80% or more mortality |
| O=C(NCC(=O)N1CCC(F)(F)C1)c1ccc(C2=NOC(c3cc(Cl)cc(Cl)c3)(C(F)(F)F)C2)c2ccccc12 (stereo not shown) [Compound 90] | 20% or less feeding damage or 80% or more mortality | 20% or less feeding damage or 80% or more mortality | 20% or less feeding damage or 80% or more mortality | 20% or less feeding damage or 80% or more mortality |
| CS(=O)(CCNC(=O)c1ccc(C2=NOC(c3cc(Cl)cc(Cl)c3)(C(F)(F)F)C2)c2ccccc12)=NC(=O)C(F)(F)F (stereo not shown) [Compound 93] | 20% or less feeding damage or 80% or more mortality | 20% or less feeding damage or 80% or more mortality | 20% or less feeding damage or 80% or more mortality | 20% or less feeding damage or 80% or more mortality |
| CS(=N)(=O)CCNC(=O)c1ccc(C2=NOC(c3cc(Cl)cc(Cl)c3)(C(F)(F)F)C2)c2ccccc12 (stereo not shown) [Compound 94] | 20% or less feeding damage or 80% or more mortality | 20% or less feeding damage or 80% or more mortality | 20% or less feeding damage or 80% or more mortality | 20% or less feeding damage or 80% or more mortality |
| CNC(=O)[C@H]1CCCN1C(=O)c1ccc(C2=NOC(c3cc(Cl)cc(Cl)c3)(C(F)(F)F)C2)c2ccccc12 (stereo partly shown) [Compound 104] | 20% or less feeding damage or 80% or more mortality | 20% or less feeding damage or 80% or more mortality | 20% or less feeding damage or 80% or more mortality | 20% or less feeding damage or 80% or more mortality |
